Assay results from PubChem BioAssay AID330 (DTP/NCI, 2004).
“And” between values parts separate entries of the source, which are not always exact repeats. Equal values may be shown once. Toxic doses and inconclusive results are not listed.

Tested on: P388 leukemia ip, CD2F1 mice, survival T/C
Assay: NCI In Vivo Anticancer Drug Screen. Data for tumor model P388 Leukemia (intraperitoneal) in CD2F1 (CDF1) mice
Details: endpoint: median survival time, higher = longer survival
How it was run: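 Mice carrying the transplanted tumor received test compound or vehicle. Survival was recorded in each group, and the value is the treated-group measurement divided by that of the vehicle-treated control group.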

In the case of `OC(C1CO1)C(O)C1CO1` (stereo unspecified), the T/C (dose: 0.5 mg/kg/injection, schedule: Q01DX005 (ip), vehicle: saline) is reported as 113 % of control and 124 % of control, the T/C (dose: 0.5 mg/kg/injection, schedule: Q01DX009 (ip), vehicle: water) is reported as 175 % of control and the T/C (dose: 1.0 mg/kg/injection, schedule: Q01DX009 (ip), vehicle: saline) is reported as 167 % of control and 179 % of control. For the same compound, the T/C (dose: 1.0 mg/kg/injection, schedule: Q01DX009 (ip), vehicle: water) was 185 % of control, the T/C (dose: 1.3 mg/kg/injection, schedule: Q01DX005 (ip), vehicle: saline) was 121 % of control and the T/C (dose: 1.5 mg/kg/injection, schedule: Q01DX009 (ip), vehicle: saline) was 155 % of control and 196 % of control. The T/C (dose: 2.0 mg/kg/injection, schedule: Q01DX009 (ip), vehicle: saline with Tween-80) was 159 % of control, the T/C (dose: 2.0 mg/kg/injection, schedule: Q01DX009 (ip), vehicle: saline) was 194 % of control and 207 % of control and the T/C (dose: 2.0 mg/kg/injection, schedule: Q01DX009 (ip), vehicle: water) was 256 % of control. For the same compound, the T/C (dose: 3.0 mg/kg/injection, schedule: Q01DX005 (ip), vehicle: saline) was 170 % of control and 181 % of control, the T/C (dose: 3.0 mg/kg/injection, schedule: Q01DX009 (ip), vehicle: saline) was 227 % of control and the T/C (dose: 4.0 mg/kg/injection, schedule: Q01DX005 (ip), vehicle: saline) was 216 % of control and 229 % of control. The T/C (dose: 4.0 mg/kg/injection, schedule: Q01DX009 (ip), vehicle: saline with Tween-80) was 213 % of control, the T/C (dose: 4.0 mg/kg/injection, schedule: Q01DX009 (ip), vehicle: saline) was 291 % of control and the T/C (dose: 4.5 mg/kg/injection, schedule: Q01DX005 (ip), vehicle: saline) was 190 % of control and 225 % of control. For the same compound, the T/C (dose: 6.0 mg/kg/injection, schedule: Q01DX009 (ip), vehicle: saline) was 89 % of control, the T/C (dose: 6.7 mg/kg/injection, schedule: Q01DX001 (ip), vehicle: saline) was 157 % of control and 179 % of control and the T/C (dose: 6.7 mg/kg/injection, schedule: Q01DX005 (ip), vehicle: saline) was 266 % of control. For the same compound, the T/C (dose: 6.7 mg/kg/injection, schedule: Q04DX003 (ip), vehicle: saline) was 243 % of control and 254 % of control, the T/C (dose: 8.0 mg/kg/injection, schedule: Q01DX005 (ip), vehicle: saline) was 89 % of control and the T/C (dose: 8.0 mg/kg/injection, schedule: Q01DX009 (ip), vehicle: saline with Tween-80) was 100 % of control. The T/C (dose: 8.0 mg/kg/injection, schedule: Q01DX009 (ip), vehicle: saline) was 103 % of control, the T/C (dose: 10.0 mg/kg/injection, schedule: Q04DX003 (ip), vehicle: saline) was 281 % of control and 298 % of control and the T/C (dose: 12.5 mg/kg/injection, schedule: Q04DX003 (ip), vehicle: saline) was 108 % of control. The T/C (dose: 25.0 mg/kg/injection, schedule: Q01DX009 (ip), vehicle: saline with Tween-80) was 100 % of control, the T/C (dose: 25.0 mg/kg/injection, schedule: Q04DX003 (ip), vehicle: saline sonified) was 100 % of control and the T/C (dose: 50.0 mg/kg/injection, schedule: Q01DX009 (ip), vehicle: saline with Tween-80) was 104 % of control. The T/C (dose: 50.0 mg/kg/injection, schedule: Q04DX003 (ip), vehicle: saline sonified) was 100 % of control, the T/C (dose: 100.0 mg/kg/injection, schedule: Q01DX009 (ip), vehicle: saline with Tween-80) was 109 % of control and the T/C (dose: 100.0 mg/kg/injection, schedule: Q04DX003 (ip), vehicle: saline sonified) was 104 % of control.
With `O=[N+]([O-])c1ccc2c(c1)nc(-c1ccccn1)n2CCc1ccccn1` the T/C (dose: 100.0 mg/kg/injection, schedule: Q04DX003 (ip), vehicle: Klucel (hydroxypropylcellulose) (HPC)) was 107 % of control, the T/C (dose: 200.0 mg/kg/injection, schedule: Q04DX003 (ip), vehicle: Klucel (hydroxypropylcellulose) (HPC)) was 101 % of control and the T/C (dose: 400.0 mg/kg/injection, schedule: Q04DX003 (ip), vehicle: Klucel (hydroxypropylcellulose) (HPC)) was 107 % of control.
For `O=c1oc2c(Cl)cc(Cl)cc2cc1-c1nc2ccccc2[nH]1`, the T/C (dose: 25.0 mg/kg/injection, schedule: Q01DX005 (ip), vehicle: Klucel (hydroxypropylcellulose) (HPC)) was 92 % of control, the T/C (dose: 50.0 mg/kg/injection, schedule: Q01DX005 (ip), vehicle: Klucel (hydroxypropylcellulose) (HPC)) was 92 % of control and the T/C (dose: 100.0 mg/kg/injection, schedule: Q01DX005 (ip), vehicle: Klucel (hydroxypropylcellulose) (HPC)) was 92 % of control. For the same compound, the T/C (dose: 200.0 mg/kg/injection, schedule: Q01DX005 (ip), vehicle: Klucel (hydroxypropylcellulose) (HPC)) was 92 % of control.
In the case of `Cc1c2ccncc2c(CNC(=O)CCCC(=O)NCc2c3cnccc3c(C)c3c2c2ccccc2n3C)c2c3ccccc3n(C)c12`, the T/C (dose: 6.25 mg/kg/injection, schedule: Q04DX002 (ip), vehicle: saline with Tween-80) is reported as 104 % of control, the T/C (dose: 12.5 mg/kg/injection, schedule: Q04DX002 (ip), vehicle: saline with Tween-80) is reported as 104 % of control and the T/C (dose: 25.0 mg/kg/injection, schedule: Q04DX002 (ip), vehicle: saline with Tween-80) is reported as 102 % of control. For the same compound, the T/C (dose: 50.0 mg/kg/injection, schedule: Q04DX002 (ip), vehicle: saline with Tween-80) was 104 % of control.
